One data set relates to human erythrocytes. Type of data set: cell-based. The method, then:
Two milliliters of human blood were placed into a 50 mL centrifuge tube and centrifuged (3000× g). The supernatant was discarded, the cell pellet re-suspended in 48 mL of PBS, and centrifuged as above; this step was repeated twice. Finally, 2 mL of cell pellet were re-suspended in a sterile tube containing 48 mL PBS to reach a final concentration of 4% RBC. […] Positive controls were prepared by adding 5 µL of 0.1% (Triton 100X) to 2 mL of 4% RBC suspension and negative controls were prepared by adding 2 mL of 4% RBC suspension only. All preparations were incubated for 60 min at 37 °C. Next, the tubes were gently vortexed and 1 mL of each sample were removed and placed into sterilized eppendorf tubes and then centrifuged (3000× g). Then, 200 µL of each supernatant was placed into a 96 well-plate. Absorbance was measured at λ = 450 nm with the aid of an ELISA reader. The percentage hemolysis was calculated according to the following equation:(2) % Hemolysis=A−AO/AX−AO×100 where A is the optical density at 450 nm (OD450) of the peptide solution, AO is the OD450 of the negative control (0.9% NaCl) and AX is the OD450 of the positive control (0.1% Triton 10X).

For the next data set, the system named is S. aureus (ATCC BAA-41). The data set is classed as cell-based, Staphylococcus aureus. The following applies: ATCC BAA-41, 24 h. From the text:
(§1) All bacterial susceptibility, biofilm, and synergistic assays of peptides, antibiotics, and peptides-antibiotics combinations used bacterial strains obtained from the American Type Tissue Culture Collection (ATCC, Manassas, VA, USA) that states the mechanism of resistance for each strain according to ATCC number. Gram-positive bacteria were represented by five strains, the wild type strain Staphylococcus aureus (ATCC 29213) and methicillin-resistant S. aureus (MRSA) (ATCC 33591) in addition to clinically isolated strains S. aureus (ATCC BAA-41& 43300) and Enterococcus faecalis (ATCC BAA-2316). The Gram-negative bacteria strains were represented by wild type strains of Escherichia coli (ATCC 25922 & 35218) and Pseudomonas aeruginosa (ATCC 27853) as well as the clinically isolated multidrug-resistant strain P. aeruginosa (ATCC BAA-2114). The bacteria were cultured onto Muller Hinton Agar (Scharlab, S.L, Barcelona, Spain). Mueller Hinton Broth (Oxoid Ltd., Basingstoke, UK) was used to prepare all bacterial suspensions and to dissolve the peptides and the antibiotics. The assay was performed in sterile 96-well polypropylene microtiter plates.
(§2) All bacterial susceptibility assays were conducted according to the microbroth dilution method outlined by the Clinical and Laboratory Standards Institute (CLSI) guidelines.
(§3) Briefly, pre-sterilized MHB was used as a growth medium for organisms obtained from stock media with glycerol. Bacterial cells were grown overnight in MHB and diluted to 10^6 CFU/mL in the same medium prior to use. For peptide, serial concentrations in the range of 0.5–100 μM were prepared. Then, 50 μL of each peptide concentration and 50 µL of diluted bacterial suspension were added to each well of a 96-well microtiter plate. Peptide solutions were prepared by dissolving the peptide in sterile MHB. Then, the plates were incubated overnight in a humidified atmosphere, and at 37 °C. Bacterial growth was determined by measuring the optical density (OD) at λ = 600 nm using an ELISA plate reader (Epoch, BioTek, Winooski, VT, USA) and the minimum inhibitory concentration (MIC) was determined.
(§4) As described in the previous section, the MIC and MBC values of antibiotics employed in this study were determined against subjected bacterial strains via preparing different concentrations of each antibiotic.

For the next data set, the system named is S. aureus (ATCC 43300). The data set is classed as cell-based, Staphylococcus aureus. The following applies: ATCC 43300, 24 h.
Description: as §1, §2, §3, §4

Data set [1] deals with S. aureus (ATCC 33591) biofilm. Type of data set: cell-based, Staphylococcus aureus. Conditions: for Viable Biofilm Cells (%): 4 h treatment 37 °C, 8 h recovery, colony count. The method, then: Biofilm formation relied on a published protocol employing the Calgary biofilm device (Innovotech, Edmonton, AB, Canada). Briefly, S. aureus (ATCC 33591) bacterial strain was incubated in MHB and cultures were diluted in the same medium to achieve a concentration of 10^5 CFU/mL. Next, diluted bacterial suspension (150 µL) was added to the sterile 96 peg-lids on which biofilm cells can build up. Negative control lanes were prepared by adding 150 µL MHB to six wells. And then the pegs were incubated for 14–16 h under rotation of 125 rpm at 37 °C to allow biofilm formation on the purpose designed pegs. The pegs were rinsed twice with phosphate-buffered saline (PBS) to remove planktonic cells as a washing step. Each peg-lid was then transferred into a “challenge 96-well microtiter plate” containing 200 μL of different peptides concentrations and the peg-lids containing the biofilms were incubated for four hours at 37 °C under rotation at 125 rpm. After biofilm treatment with the challenge plate, the biofilms were re-washed twice with PBS then transferred into the recovery plate for eight hours. The minimum biofilm eradication concentration MBEC value is defined as the minimum concentration needed to inhibit the re-growth of biofilms after four hours of peptide treatment, washing twice with PBS and incubating in pre-sterilized MHB (recovery plate) for 8 h, using an ELISA plate reader λ = 600 nm. Additionally, the biofilms were assessed for their minimum bactericidal concentration (MBECb), this assay was conducted similar to MBC assay (see Section 2.4.1). MBECb parameter is defined as the lowest concentration able to eradicate 3log^10 of the viable microorganisms in a biofilm (99.9% killing) after 8 h of incubation in recovery plates using the colony count method.

Where two headings read alike, the source gives them in different places. Square brackets hold non-standard residues; d marks the D form. Peptide text beside a SMILES is read from it. Bip = N[C@@H](Cc1ccc(-c2ccccc2)cc1)C(=O)O

In the case of `N=C(N)NCCC[C@H](NC(=O)[C@H](Cc1ccc(-c2ccccc2)cc1)NC(=O)[C@H](CCCNC(=N)N)NC(=O)[C@H](Cc1ccc(-c2ccccc2)cc1)NC(=O)[C@@H](N)CCCNC(=N)N)C(=O)O` [UP-5] (H-R[Bip]R[Bip]R-OH), the “Hemolysis (%)” value with human erythrocytes (40 µM) stood at 0.09%; in the data set on human erythrocytes (60 µM) it was 1.01%; in the data set on human erythrocytes (80 µM), 1.04%; in the data set on human erythrocytes (150 µM) it was 3.0%; with human erythrocytes (175 µM), 3.04%. Moreover, the “MBC Value” with S. aureus (ATCC BAA-41) and with S. aureus (ATCC 43300) was 15 µM each time. In addition, the “MIC Value” in the data set on S. aureus (ATCC BAA-41) and with S. aureus (ATCC 43300) was 15 µM throughout. For the same molecule, in data set [1] (ATCC 33591, 4 h), the “MBEC value (minimum biofilm eradication concentration)” value worked out at 20 µM. For the same molecule, in data set [1] (ATCC 33591, 8 h), the “MBCb (MBECb), minimum bactericidal concentration against biofilm cells” value came to 20 µM. Also, the “Viable Biofilm Cells (%)” value in data set [1] (peptide concentration 10 μM) was 0.35%; in data set [1] (peptide concentration 20 μM), 0.108%; in data set [1] (peptide concentration 30 μM), 0.054%; in data set [1] (peptide concentration 40 μM), 0%; in data set [1] (peptide concentration 60 μM) it was 0%; in data set [1] (peptide concentration 80 μM), 0%. Also, in data set [1] (peptide concentration 100 μM, compared to untreated biofilm), the “Viable Biofilm Cells (%)” value worked out at 0%.
